Experimental data taken from PubChem BioAssay (NCI).
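Method: 48-hour compound exposure of cells in 96-well plates, five concentrations, linear interpolation of endpoints. GI50 = concentration required for 50% inhibition of growth. Definition used: TGI = concentration required for complete inhibition of growth.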

Legend:
Assay in all cases: NCI tumour cell line growth inhibition, 48 h
DMS 273 small cell lung = system: DMS 273 small cell lung
SNB-78 CNS = system: SNB-78 CNS
DMS 114 small cell lung = system: DMS 114 small cell lung
XF 498 CNS = system: XF 498 CNS
KM20L2 colon = system: KM20L2 colon
LXFL 529 NSCLC = system: LXFL 529 NSCLC

Compound	TGI (DMS 273 small cell lung)	TGI (SNB-78 CNS)	TGI (DMS 114 small cell lung)	TGI (XF 498 CNS)	TGI (KM20L2 colon)	TGI (LXFL 529 NSCLC)	GI50 (DMS 114 small cell lung)	GI50 (KM20L2 colon)
COP1(=O)CC2C(Cl)(Cl)C2(C)C1 (centres undefined)	> 100 µM	> 100 µM	> 100 µM	> 100 µM	> 100 µM	> 100 µM		
CC1(C)C(=O)N(c2ccccc2)C(=O)N1c1nc2ccccc2[nH]1	> 100 µM	> 100 µM	> 100 µM	> 100 µM	> 100 µM	> 100 µM		
CC1CC(c2ccccc2)=Nc2ccccc2S1(=O)=O (centres undefined)	38.3 µM	30.8 µM	45.8 µM	32.7 µM	31.7 µM	28.6 µM		
COc1ccc(NC(=O)C2C(=O)N(c3ccc(OC)cc3)C(=O)/C2=N/O)cc1 (centres undefined)	> 81.1 µM	> 100 µM	> 100 µM	18.7 µM	> 100 µM	> 75 µM		
CCN(CC)CCC1CC/C(=C\c2ccc(OC)cc2)C1=O (centres undefined)	> 100 µM	> 100 µM	> 100 µM	> 100 µM	78.3 µM	> 100 µM		
CCC(=O)c1cn(C)c(=O)c2ccccc12	> 100 µM	> 100 µM	> 100 µM	> 100 µM	> 100 µM	> 100 µM		
CC(=O)NC(CCCCNC(=O)OCc1ccccc1)C(=O)NCc1ccccc1 (centres undefined)	> 100 µM	> 100 µM	> 100 µM	> 100 µM	> 100 µM	> 100 µM		
C=CCc1cc2cccc(OC)c2oc1=O	> 100 µM	> 100 µM	> 100 µM	53.5 µM	> 100 µM	> 100 µM		
COc1cc(-c2cc(=O)c3cc4c(cc3[nH]2)OCO4)cc(OC)c1OC	> 100 µM	> 100 µM	> 100 µM	> 100 µM	> 100 µM	> 100 µM	83.8 µM	> 100 µM
Cc1cc2c(CC(=O)O)[nH]nc2c(C(=O)O)c1C	> 100 µM	> 100 µM		> 100 µM	> 100 µM	> 100 µM		
COc1ccc(-c2c(C3=NCCN3)nnn2-c2ccccc2)cc1	> 100 µM	> 100 µM	> 100 µM	> 100 µM	> 100 µM	> 100 µM		
Cc1nc(N)sc1C(=O)/C=C/c1ccc(/C=C/C(=O)c2sc(NC(=O)CCCCCCCCC(=O)Nc3nc(C)c(C(=O)/C=C/c4ccc(/C=C/C(=O)c5sc(N)nc5C)cc4)s3)nc2C)cc1	> 100 µM	> 100 µM	> 100 µM	> 100 µM	> 100 µM	> 100 µM		
CC(=O)OCC1OC(n2c(-c3ccccc3)cc(-c3ccco3)c(C#N)c2=O)C(OC(C)=O)C(OC(C)=O)C1OC(C)=O (centres undefined)	> 100 µM	> 100 µM	> 100 µM	43.7 µM	> 100 µM	> 100 µM		50.9 µM
CC(=O)O[C@H]1C(N(C)C(=O)c2ccccc2)CC[C@]2(C)C3CC[C@@]4(C)C(CC(O)[C@@H]4C(C)N(C)C)[C@@H]3CCC12 (some centres undefined)	> 100 µM	> 100 µM	> 100 µM	> 100 µM	> 100 µM	> 100 µM		
NC(N)=N/N=C(/c1nc2ccc([N+](=O)[O-])cc2[nH]c1=O)C(O)c1ccco1 (centres undefined)	> 100 µM	> 100 µM	> 100 µM	> 100 µM	> 100 µM	> 100 µM		
COC(=O)c1c(-c2ccccc2)cc2c3cc(-c4ccccc4)c(C(=O)OC)n3c3ccccc3n12	> 100 µM	> 100 µM	> 100 µM	> 100 µM	> 100 µM	> 100 µM		
CCCC(=O)c1c(NOC2OC(COC(C)=O)C(OC(C)=O)C(OC(C)=O)C2OC(C)=O)nc(OC)n(C)c1=O (centres undefined)	> 100 µM	> 100 µM	> 100 µM	> 100 µM	> 100 µM	> 100 µM		
O=C1C(Br)=C[C@H]2C3C=CC(Br)(C3=O)[C@@H]12 (some centres undefined)	27 µM	> 100 µM	28.3 µM	31.2 µM	18.2 µM	21.8 µM		
O=C(C(O)c1cn(Cc2ccccc2)c2ccccc12)N1CCCCC1 (centres undefined)	> 100 µM	> 10 µM	> 100 µM	> 100 µM	> 100 µM	> 100 µM		
Cc1cc2nc3c(=O)n(C)c(=O)nc-3n(-c3ccc(Cl)cc3)c2cc1C	20.6 µM	45.9 µM	13.7 µM	7.14 µM	26.1 µM	27.5 µM		
C=CCNC(=S)N1CC(C)C(=O)Nc2ccccc21 (centres undefined)	> 100 µM	> 100 µM	> 100 µM	> 100 µM	> 100 µM	> 100 µM		
CCOc1ccccc1NC(=O)/C=C1\NC(=O)CS1	> 100 µM	> 100 µM	> 100 µM	> 100 µM	> 100 µM	> 100 µM		
